Reference: publication PMC9320206, “Sanguinarine, identified as a natural alkaloid LSD1 inhibitor, suppresses lung cancer cell growth and migration” (Iranian Journal of Basic Medical Sciences, 2022)
pIC50: −log10 of the molar value.

Target: T1, Lysine-specific demethylase 1 (LSD1) (Homo sapiens, UniProt O60341)
T1 construct: gene KDM1A; recombinant LSD1 (pET-28b-LSD1, expressed in BL21(DE3))
Test: HRP/Amplex Red fluorescence demethylase assay with H3K4me2 peptide; no-enzyme counter-screen; […] dilution reversibility assay
Assay type: biochemical

## C[n+]1cc2c3c(ccc2c2ccc4cc5c(cc4c21)OCO5)OCO3 [sanguinarine]
  pIC50: 6.40
